Assay: Inhibition of SARS-CoV-2 3CL protease Q189A mutant by FRET assay
Parameters: species or system Severe acute respiratory syndrome coronavirus 2

O=c1c(O[C@@H]2OC(O)[C@@H](O)[C@H](O)[C@@H]2O)c(-c2ccc(O)c(O)c2)oc2cc(O)cc(O)c12 (stereo partly specified)
IC50: 24.1 µM
